Like-named read-outs stand apart in the source and are kept apart here.
Tests used:
OR2T11 = target: T1, OR2T11 (Homo sapiens, UniProt Q8NH01); details: cited from earlier work
T1 sequence (Q8NH01 1-316): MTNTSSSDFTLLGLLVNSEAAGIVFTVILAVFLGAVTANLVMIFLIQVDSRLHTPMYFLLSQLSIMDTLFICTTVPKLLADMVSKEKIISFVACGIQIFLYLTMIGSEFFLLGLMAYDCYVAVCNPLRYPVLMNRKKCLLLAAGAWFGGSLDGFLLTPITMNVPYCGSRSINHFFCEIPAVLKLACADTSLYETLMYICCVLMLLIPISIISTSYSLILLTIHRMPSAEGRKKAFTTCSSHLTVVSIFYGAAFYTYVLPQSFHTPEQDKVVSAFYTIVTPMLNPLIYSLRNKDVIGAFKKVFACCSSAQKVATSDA

consensus OR2T5 = target: T2, consensus OR2T5 (Homo sapiens, UniProt Q6IEZ7, A76M/C55S/F147L/I190K/I217V/K41M/L14S/L223S/L224F/L249M/L87M/M19V/M302T/M75V/R23S/R24Q/R6W/S169T/S32C/S61T/T121A/T189M/V229I/V48I/V96I/W176R); assay: Luciferase assay, sulfur compounds; type: cell-based
T2 construct: expressed in transfected cells; host or cells: HEK293
T2 sequence (Q6IEZ7 with tags, fused parts or gaps R6W/L14S/M19V/R23S/R24Q/S32C/K41M/V48I/C55S/S61T/M75V/A76M/L87M/V96I/T121A/F147L/S169T/W176R/T189M/I190K/I217V/L223S/L224F/V229I/L249M/M302T): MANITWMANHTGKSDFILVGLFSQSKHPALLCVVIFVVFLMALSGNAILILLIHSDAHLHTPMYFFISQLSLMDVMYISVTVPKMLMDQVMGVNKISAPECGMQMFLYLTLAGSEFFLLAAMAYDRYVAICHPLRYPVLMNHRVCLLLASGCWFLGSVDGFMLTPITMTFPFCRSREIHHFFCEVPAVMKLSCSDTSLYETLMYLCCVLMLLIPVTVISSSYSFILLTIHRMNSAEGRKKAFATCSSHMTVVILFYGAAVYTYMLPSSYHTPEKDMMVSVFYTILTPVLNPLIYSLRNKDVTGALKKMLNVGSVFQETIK

consensus OR6B1 = target: T3, consensus OR6B1 (Homo sapiens, UniProt O95007, C165R/C227R/F212S/I201V/I253T/L3V/L50Q/L96H/N89S/S282A/T195A/V262A); assay: Luciferase assay, sulfur compounds; type: cell-based; details: in the presence of a copper ion
T3 construct: expressed in transfected cells; host or cells: HEK293
T3 sequence (O95007 whole entry L3V/L50Q/N89S/L96H/C165R/T195A/I201V/F212S/C227R/I253T/V262A/S282A): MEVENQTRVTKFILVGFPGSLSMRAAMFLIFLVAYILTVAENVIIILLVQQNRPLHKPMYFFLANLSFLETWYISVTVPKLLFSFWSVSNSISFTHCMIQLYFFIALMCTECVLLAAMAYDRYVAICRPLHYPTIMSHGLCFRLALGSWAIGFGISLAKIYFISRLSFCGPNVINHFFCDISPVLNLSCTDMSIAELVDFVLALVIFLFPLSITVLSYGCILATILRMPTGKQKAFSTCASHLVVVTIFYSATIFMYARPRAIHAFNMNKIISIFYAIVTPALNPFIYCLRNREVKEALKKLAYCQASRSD

OR4C15 = OR4C15 (Homo sapiens, UniProt Q8NGM1); details: JP-A-2020-510436; cited from earlier work
OR4C15, sequence (Q8NGM1 whole entry): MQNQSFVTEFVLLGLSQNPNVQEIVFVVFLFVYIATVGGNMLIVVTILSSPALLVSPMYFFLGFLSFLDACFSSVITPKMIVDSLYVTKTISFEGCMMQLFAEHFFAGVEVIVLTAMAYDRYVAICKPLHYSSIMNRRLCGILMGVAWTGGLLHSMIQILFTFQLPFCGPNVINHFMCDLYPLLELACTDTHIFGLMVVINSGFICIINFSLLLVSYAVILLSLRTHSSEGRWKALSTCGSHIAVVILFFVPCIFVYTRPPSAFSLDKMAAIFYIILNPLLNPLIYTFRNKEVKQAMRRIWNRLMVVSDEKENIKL

OR2L13 = OR2L13 (Homo sapiens, UniProt Q8N349); details: JP-A-2020-510436; cited from earlier work
OR2L13, sequence (Q8N349 whole entry): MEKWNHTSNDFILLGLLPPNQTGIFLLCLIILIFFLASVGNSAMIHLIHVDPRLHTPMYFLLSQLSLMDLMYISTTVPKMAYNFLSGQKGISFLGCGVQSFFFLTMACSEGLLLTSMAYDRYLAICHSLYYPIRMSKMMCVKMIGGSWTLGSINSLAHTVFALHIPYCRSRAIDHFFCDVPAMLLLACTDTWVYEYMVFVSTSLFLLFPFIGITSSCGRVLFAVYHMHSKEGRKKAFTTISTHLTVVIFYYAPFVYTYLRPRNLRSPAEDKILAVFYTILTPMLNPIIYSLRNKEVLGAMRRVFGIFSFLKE

OR2T1 = details: in the presence of a metal ion (JP-B-6122181); cited from earlier work
[1] = Block E et al., Nat. Prod. Rep. 2017
[2] = in the presence of a copper ion

Structure (SMILES)	response of OR2T11 (OR2T11; [1])	response of consensus OR2T5 (consensus OR2T5; [2])	response of consensus OR6B1 (consensus OR6B1)	response of OR4C15 (OR4C15)	response of OR2L13 (OR2L13)	response of OR2T11 (OR2T11; in the presence of a metal ion (JP-B-6122181))	EC50 (consensus OR2T5; consensus OR2T5, 30 μM CuCl2) [µM]	dose dependence of the response of consensus OR2T5 (consensus OR2T5; [2])	response of OR2T1 (OR2T1)
CSSC [dimethyl disulfide]	responds	responded	–	–	–	–	–	–	–
CSSSC [dimethyl trisulfide]	–	–	responded	respond	respond	–	–	–	–
CS [methyl mercaptan]	responds	responded	–	–	–	respond	217	dose-dependent response	respond
